Here are results for ten molecules from patent publication EP2491043B1, “2,7-SUBSTITUTED THIENO[3,2-D]PYRIMIDINE COMPOUNDS AS PROTEIN KINASE INHIBITORS” (Korea Institute of Science and Technology, priority 2009, dated 2011).

Assay [1] deals with HT-29 human colon adenocarcinoma cells. Put plainly: Inhibition of proliferation of HT-29 cells (MTT assay). To be noted: read-out: Inhibition activity against proliferation of HT-29 cells (GI50). Format: cell-based. As to the method: HT-29 human colon adenocarcinoma cells were cultured in DMEM [10% FBS, 1% penicillin/streptomycin] at 37 °C in the presence of 5% CO2. The cultured HT-29 cells were harvested with 0.05% trypsin-0.02% EDTA and seeded in a 96-well plate at 5 x 10^3 cells per well.
3-(4,5-Dimethylthiazol-2-yl)-2,5-diphenyltetrazolium bromide (MTT) assay (CellTiter 96 Assay, Promega) was employed to measure cell viability. After adding 15 µL of a dye per well and culturing for 2 hours, the cells were treated with 100 µL of a stop solution and absorbance was measured 24 hours later. The test compound was treated a day after plating. The test compound had been sequentially diluted at 12 concentrations from a 10 mM stock solution using sterilized dimethylsulfoxide (DMSO) and treated with an amount of 0.5 µL. Absorbance at 590 nm was recorded using En Vision 2103, and GI50 value was calculated using GraphPad Prism 4.0 software.

The next assay has as its target T1, FAK (Homo sapiens, UniProt Q05397).
T1 construct: purchased Cell Signaling 7796
The experiment in a line: Measurement of FAK kinase activity (ULight-LANCE assay). The following applies: 10 µM ATP, 3 nM FAK, TR-FRET; read-out: FAK inhibition activity (IC50). In kind it is biochemical. As to the method:
Full sequence FAK was purchased from Cell Signaling (Catalog No.: 7796). ULight-poly GT (PerkinElmer #TRF0100-D), Eu-anti-phospho-Tyr (PT66) ((PerkinElmer #AD0068) and Lance detection buffer (PerkinElmer #CR-97-100) were purchased from PerkinElmer. The kinase solution (50 mM Tris-HCl pH 7.5, 10 mM MgCl2, 1 mM EGTA, 2 mM DTT, 0.01% Tween-20) was adjusted to a final concentration of 3 nM by adding FAK diluted to 6 nM (2X) in white 384 OptiPlate, and added with an amount of 5 µL. 4X ULight-poly GT was adjusted to a final concentration of 100 nM. ATP (Sigma #A2383) was adjusted to a final concentration of 10 µM and in 2.5 µL aliquots. The test compound was sequentially diluted at 12 concentrations and treated with an amount of 0.5 µL. After shaking well and allowing to react at room temperature for 60 minutes, 5 µL of ethylenediaminetetraacetic acid (EDTA, final concentration 40 mM) diluted in Lance detection buffer (Lance detection buffer) was added and the mixture was left at room temperature for 5 minutes to stop the reaction. After adding 4X Eu-anti-phospho-Tyr (PT66) phosphorylated antibody diluted to a final concentration of 2 nM in detection buffer with an amount of 5 µL, and reaction was performed at room temperature for 60 minutes. After adjusting to detect time-resolved fluorescence energy transfer (TR-FRET) at excitation wavelength 320 nm and emission wavelength 665 nm, signals were detected using EnVision Multilabel Reader.
On the technique in general: In TR-FRET formats the signal depends on donor and acceptor labels being close together.

For a further assay, the system named is tumor. To be noted: concurrent administration of TAE226 and docetaxel, animal model, P values < 0.01; cited from earlier work.
In assay [2] the test system is prostate cancer PC-3, breast cancer BT-474, colon LoVo, lung cancer NCI-H460, glioblastoma U-87 MG and pancreatic cancer BxPC-3 cells. To be noted: 25-100 mg/kg p.o., human tumor xenografts; cited from earlier work. (In general: A xenograft is tissue or cells of one species grown in another, often human tumour cells in immunodeficient mice.)

By IC50 is commonly meant the concentration at which inhibition is half-maximal.

T1 sequence (Q05397 whole entry): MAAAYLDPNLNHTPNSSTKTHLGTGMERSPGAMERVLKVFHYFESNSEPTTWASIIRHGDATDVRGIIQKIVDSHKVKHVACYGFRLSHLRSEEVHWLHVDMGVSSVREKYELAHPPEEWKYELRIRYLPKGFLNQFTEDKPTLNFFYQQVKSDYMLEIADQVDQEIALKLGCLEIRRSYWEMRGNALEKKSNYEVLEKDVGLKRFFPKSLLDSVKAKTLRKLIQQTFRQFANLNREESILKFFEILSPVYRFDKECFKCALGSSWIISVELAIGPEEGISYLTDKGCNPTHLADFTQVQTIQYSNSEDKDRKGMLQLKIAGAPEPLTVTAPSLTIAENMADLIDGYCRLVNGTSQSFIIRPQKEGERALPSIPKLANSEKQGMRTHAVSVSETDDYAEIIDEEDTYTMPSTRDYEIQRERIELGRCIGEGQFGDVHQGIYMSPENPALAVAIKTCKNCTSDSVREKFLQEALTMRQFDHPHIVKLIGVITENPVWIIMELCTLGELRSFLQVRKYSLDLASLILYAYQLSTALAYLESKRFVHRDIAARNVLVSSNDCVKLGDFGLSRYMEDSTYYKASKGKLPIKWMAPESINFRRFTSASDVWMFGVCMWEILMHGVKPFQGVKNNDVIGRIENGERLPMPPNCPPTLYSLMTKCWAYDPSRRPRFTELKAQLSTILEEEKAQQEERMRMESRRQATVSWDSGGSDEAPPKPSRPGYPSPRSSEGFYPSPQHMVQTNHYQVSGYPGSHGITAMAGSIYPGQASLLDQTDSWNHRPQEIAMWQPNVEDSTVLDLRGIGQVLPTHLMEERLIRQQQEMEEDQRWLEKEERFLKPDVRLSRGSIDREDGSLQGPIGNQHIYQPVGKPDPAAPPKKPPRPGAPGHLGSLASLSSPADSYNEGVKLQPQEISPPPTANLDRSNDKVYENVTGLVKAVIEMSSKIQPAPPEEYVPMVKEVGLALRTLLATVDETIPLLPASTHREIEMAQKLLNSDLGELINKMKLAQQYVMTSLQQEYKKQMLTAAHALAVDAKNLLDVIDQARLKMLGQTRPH

For the molecule `CCN1CCN(c2ccc(Nc3ncc4scc(-c5cnc6ccccc6c5)c4n3)cn2)CC1` [Example 30, N-(6-(4-ethylpiperazin-1-yl)pyridin-3-yl)-7-(quinolin-3-yl)thieno[3,2-d]pyrimidin-2-amine], the GI50 in assay [1] was less than 1000 nM. The IC50 at FAK was less than 500 nM.

For `CN(C)CCOc1ccc(Nc2ncc3scc(-c4cccc(NS(C)(=O)=O)c4)c3n2)cn1` [Example 13, N-(3-(2-(6-(2-(dimethylamino)ethoxy)pyridin-3-ylamino)thieno[3,2-d]pyrimidin-7-yl)phenyl)methanesulfonamide], the GI50 in assay [1] is less than 1000 nM. Also, the IC50 at FAK was less than 500 nM.

As for `O=C(NC1CC1)c1cccc(-c2csc3cnc(Nc4ccc(N5CCOCC5)nc4)nc23)c1` [Example 27, N-cyclopropyl-3-(2-(6-morpholinopyridin-3-ylamino)thieno[3,2-d]pyrimidin-7-yl)benzamide], the GI50 in assay [1] is less than 1000 nM. The IC50 on FAK was less than 500 nM.

In the case of `Cc1ccc(Nc2ncc3scc(-c4cccc(NS(C)(=O)=O)c4)c3n2)cn1` [Example 11, N-(3-(2-(6-methylpyridin-3-ylamino)thieno[3,2-d]pyrimidin-7-yl)phenyl)methanesulfonamide], the GI50 in assay [1] was less than 1000 nM. Moreover, on FAK, the IC50 was less than 1000 nM.

`CS(=O)(=O)Nc1cccc(-c2csc3cnc(Nc4ccc(N5CCOCC5)nc4)nc23)c1` [Example 12, N-(3-(2-(6-morpholinopyridin-3-ylamino)thieno[3,2-d]pyrimidin-7-yl)phenyl)methanesulfonamide]: the GI50 in assay [1] was less than 1000 nM. In addition, the IC50 on FAK is less than 1000 nM.

Regarding `CCN1CCN(c2ccc(Nc3ncc4scc(-c5cccc(NS(C)(=O)=O)c5)c4n3)cn2)CC1` [Example 1, N-(3-(2-(6-(4-ethylpiperazin-1-yl)pyridin-3-ylamino)thieno[3,2-d]pyrimidin-7-yl)phenyl)methanesulfonamide], the GI50 in assay [1] was less than 1000 nM. The IC50 at FAK was less than 500 nM.

For the molecule `CNC(=O)c1ccccc1Nc1nc(Nc2ccc(N3CCOCC3)cc2OC)ncc1Cl` [TAE226], in the assay on tumor, the tumor reduction is 85-97%.

Regarding `CCN1CCN(c2ccc(Nc3ncc4scc(-c5cccc(C(=O)NC6CC6)c5)c4n3)cn2)CC1` [Example 25, N-cyclopropyl-3-(2-(6-(4-ethylpiperazin-1-yl)pyridin-3-ylamino)thieno[3,2-d]pyrimidin-7-yl)benzamide], the GI50 in assay [1] was less than 1000 nM. In addition, on FAK, the IC50 was less than 500 nM.

Take `CN(c1ncccc1CNc1nc(Nc2ccc3c(c2)CC(=O)N3)ncc1C(F)(F)F)S(C)(=O)=O` [PF-562271]: the “inhibition of tumor growth or tumor degeneration” value in assay [2] is listed as 42-90%.

`Cc1ccc(Nc2ncc3scc(-c4cccc(C(=O)NC5CC5)c4)c3n2)cn1` [Example 26, N-cyclopropyl-3-(2-(6-methylpyridin-3-ylamino)thieno[3,2-d]pyrimidin-7-yl)benzamide]: on FAK, the IC50 was less than 10000 nM.
